Data: patent US12178821B2, “Combination therapies for the treatment of cancer” (Curis, Inc., priority 2021, dated 2024)
Entries after “also recorded” stand apart in the source; their conditions may differ. Read-outs that look alike come from different tables or passages of the source.

Experiments:
F-36P = assay: CellTiter Glo cell viability assay, GI50, 72 hrs; assay type: cell-based
Description: (§1) CellTiter Glo cell viability assay was used to evaluate the antitumor effects of Compound 1 in combination with AML SOC drugs daunorubicin, Ara-C, decitabine, azacitidine and venetoclax in FLT3-WT AML cell lines THP-1, F-36P, OCl-AML2 and GDM-1. GI50 (the concentration for 50% of maximal inhibition of cell proliferation) was determined for each drug in AML cell lines.
(§2) Cells were treated for 72 hrs. Relative cell viability was measured by CellTiter Glo assay (Promega, Madison, WI) at 0 and at 72 hrs. GI50 was calculated using GraphPad Prism 8.0 software.

THP-1 = assay: CellTiter Glo cell viability assay, GI50, 72 hrs; assay type: cell-based
Description: as §1, §2

GDM-1 = assay: CellTiter Glo cell viability assay, GI50, 72 hrs; assay type: cell-based
Description: as §1, §2

OC1-AML2 = assay: CellTiter Glo cell viability assay, GI50, 72 hrs; assay type: cell-based
Description: as §1, §2

[1] = concentration used in the combination experiments; cited from earlier work
[2] = test system: FLT3-WT AML cell lines THP-1, F-36P, OCl-AML2 and GDM-1; assay: CellTiter Glo combination experiments summarised over the cell line panel; assay type: cell-based; conditions: 4 FLT3-WT AML cell lines, 96 hrs, clinically relevant drug concentration
Description: as §1, with “lines. Either GI50 (below peak plasma concentration) or peak plasma concentration (if GI50 was higher than peak plasma concentration) of each drug was used as clinically relevant concentration for combination experiments.” for “lines.”
Cells were treated continuously with clinically relevant drug concentration for 96 hrs. Relative cell viability was measured by CellTiter Glo assay (Promega, Madison, WI) at 0 and at 96 hrs according to manufacturer's instructions. All values are presented as mean±SE. Cell viability assay data were analyzed with one-way ANOVA. P values less than 0.05 were considered significant. Statistical analysis was performed using GraphPad Prism 8.0 software. + Less than 50% growth inhibition, p<0.05; ++ 50-100% growth inhibition, p<0.05; +++ Induction of cell death (cytotoxic effect), p<0.05; NS, not significant; ND, not defined. *Venetoclax resistant cell line, **Azacitidine/Decitabine resistant cell line. Clinically relevant conc (peak plasma conc): Compound 1-10 μM; Venetoclax—1 μM; and Azacitidine—4 μM.

[3] = F-36P cells, treated for 72 hrs, CellTiter Glo, read-out: GI50
[4] = OC1-AML2 cells, treated for 72 hrs, CellTiter Glo, read-out: GI50
[5] = Homo sapiens, THP-1 cells, treated for 72 hrs, CellTiter Glo, read-out: GI50
[6] = Homo sapiens, GDM-1 cells, treated for 72 hrs, CellTiter Glo, read-out: GI50

SMILES	GI50 (F-36P; [3]) [nM]	GI50 (THP-1; THP-1 cells, treated for 72 hrs, CellTiter Glo, read-out: GI50) [nM]	GI50 (GDM-1; GDM-1 cells, treated for 72 hrs, CellTiter Glo, read-out: GI50) [nM]	GI50 (OC1-AML2; [4]) [nM]	GI50 (THP-1; [5]) [nM]	GI50 (GDM-1; [6]) [nM]	resistance of the cell line to the treatment (OC1-AML2; OCl-AML2)	Clinically relevant conc (peak plasma conc) [1] [µM]	antitumor effect of the combination over the cell line panel, in words [2]	GI50 (F-36P; 72 h) [nM]	GI50 (THP-1; Homo sapiens, THP-1, 72 h) [nM]	GI50 (GDM-1; Homo sapiens, GDM-1, 72 h) [nM]	GI50 (OC1-AML2; 72 h) [nM]
Nc1ccn([C@@H]2O[C@H](CO)[C@@H](O)[C@@H]2O)c(=O)n1 [Ara-C]	150	150	5	4000									
Nc1ncn([C@@H]2O[C@H](CO)[C@@H](O)[C@H]2O)c(=O)n1 [Azacitidine]	4000			30000	3000	2000	resistant	4					
Cc1cc(-c2nc(C(=O)Nc3cc4oc(N5CCOCC5)nc4nc3N3CC[C@@H](O)C3)co2)ccn1 [Compound 1]	> 20000			13000	> 20000	> 20000		10	potentiated antitumor effects of azacitidine in 3 of 4 FLT3-WT AML cell lines; also recorded: significantly potentiated antitumor effects of azacitidine+venetoclax in all AML FLT3-WT cell lines				
COc1cccc2c1C(=O)c1c(O)c3c(c(O)c1C2=O)C[C@@](O)(C(C)=O)C[C@@H]3O[C@H]1C[C@H](N)[C@H](O)[C@H](C)O1 [Daunorubicin]										100	5	10	5
Nc1ncn([C@H]2C[C@H](O)[C@@H](CO)O2)c(=O)n1 [Decitabine]										200	150	80	18000
CC1(C)CCC(CN2CCN(c3ccc(C(=O)NS(=O)(=O)c4ccc(NCC5CCOCC5)c([N+](=O)[O-])c4)c(Oc4cnc5[nH]ccc5c4)c3)CC2)=C(c2ccc(Cl)cc2)C1 [Venetoclax]	18000			2	18000	5		1					
